Source: paper PMC8151276, “An Integrated Approach toward NanoBRET Tracers for Analysis of GPCR Ligand Engagement” (Molecules, 2021)

Experiments:
CXCR3 = target: T1, CXCR3 (Homo sapiens, UniProt P49682); assay: NanoBRET screen HiBiT-CXCR3 in HEK293; assay type: binding; settings: CXCR3
T1 construct: purchased Promega (in-house HiBiT-GPCR construct library, NanoBRET)
T1 sequence (P49682 1-368): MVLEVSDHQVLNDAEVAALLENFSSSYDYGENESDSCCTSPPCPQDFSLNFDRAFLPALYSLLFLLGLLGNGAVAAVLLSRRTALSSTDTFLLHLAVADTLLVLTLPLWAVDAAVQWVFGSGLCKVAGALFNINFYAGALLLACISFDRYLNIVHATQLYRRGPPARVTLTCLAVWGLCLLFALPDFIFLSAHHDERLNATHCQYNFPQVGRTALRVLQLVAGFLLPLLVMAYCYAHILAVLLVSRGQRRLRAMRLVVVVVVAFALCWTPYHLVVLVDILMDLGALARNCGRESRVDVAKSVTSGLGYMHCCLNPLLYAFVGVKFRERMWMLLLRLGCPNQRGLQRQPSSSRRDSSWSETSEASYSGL
Experimental: (§1) Each tracer candidate was screened across the entire library of HiBiT-GPCR constructs using NanoBRET as the detection modality. As depicted in Figure 4A, the specificity of interactions was evaluated through decrease in BRET due to competitive displacement of a bound tracer by excess parental compound. Each tracer was analyzed for binding to each HiBiT-GPCR fusion in the absence and in the presence of competing parental compound. Briefly, HEK293 cells were transfected with HiBiT-GPCR constructs diluted into promoterless DNA to reduce expression and maximize translocation to the cell surface. Each tracer candidate was then screened at concentrations of 1 μM and 0.1 μM across cells expressing these fusions. Cells were treated for 1.5 h with tracer either alone or in the presence of 20 μM competing parental compound (i.e., control). BRET was measured upon addition of purified LgBiT and subsequent complementation with HiBiT genetically fused to a GPCR. The specificity of interactions was assessed through a decrease in BRET signal due to competitive displacement of the bound tracer. To further gauge the robustness of these interactions, the fold response over the control (i.e., BRETtracer/BRETcontrol) was calculated. We chose a 1.5-fold response, which translates to ≥7-fold signal over noise as the minimal threshold required to score an interaction as positive. […]. Below we highlight the screening results obtained for our exemplary fluorescent tracers based on Clozapine, Amitriptyline and AZD1283.
(§2) HiBiT-GPCR DNA constructs were diluted in 10 mM Tris pH 8 to a final concentration of 0.01 μg/μL, arrayed in 96-well plates and stored at −20 °C. For transfection, HEK293 cells were suspended in Opti-MEM (without phenol red) supplemented with 2% fetal bovine serum (Seradigm) and 100 units/mL penicillin–streptomycin (Gibco) at a final concentration of 220,000 cells/mL and dispensed into white 96-well plates at 90 μL/well. Subsequent transfections and screens were carried using an Agilent Bravo Automated Liquid Handling Platform. First, the 96-well HiBiT DNA arrays were diluted 25-fold in Opti-MEM (without serum or phenol red) to a final concentration of 0.0004 μg/μL and 20 μL of the diluted DNAs were transferred into new 96-well plates. Next, promoterless carrier DNA (1 μg/μL) was diluted 25-fold (0.04 μg/μL) and then dispensed into the diluted arrays at 20 μL/well. Following brief mixing, Viafect transfection reagent (Promega) diluted 16-fold into Opti-MEM was dispensed into the plates at 40 μL/well. After mixing by pipetting, plates were incubated for 10 min on the pipetting station deck. The DNA-transfection reagent complexes were then added to plates containing cells. To facilitate the screen, 10 μL of DNA-transfection reagent complexes were added in duplicates to the top 4 and bottom 4 rows, resulting in two identical 48-well arrays per plate. Plates with transfected cells were incubated for 18–20 h at 37 °C/5% CO2. A screen of each tracer across the entire library using two different concentrations requires duplicate plates of transfected cells. Depending on the number of tracers being screened, transfections can be scaled up using the same ratios. The next day, for each tracer, four 20× screening solutions in tracer dilution buffer (Promega) were prepared: two duplicates at final concentration of 20 μM and two duplicates at a final concentration of 2 μM. A competing unmodified compound was added to one of each duplicate at a final concentration of 400 μM. The four resulting solutions were diluted 4-fold in Opti-MEM without serum or phenol red to generate 5× solutions (5 µM and 0.5 µM tracer +/− 100 μM competing compound). To screen the library, a BioTek MultiFlo FX liquid dispenser was used to dispense 22.5 µL of tracer solution to the top 4 rows and 22.5 µL tracer + competing compound solution to the 4 bottom rows. Plates were briefly mixed on an orbital shaker and incubated for 1.5 h at room temperature. […]

F2R = target: T2, F2R (Homo sapiens, UniProt P25116); assay: NanoBRET screen HiBiT-F2R in HEK293; assay type: binding; settings: F2R
T2 construct: purchased Promega (in-house HiBiT-GPCR construct library, NanoBRET)
T2 sequence (P25116 22-425): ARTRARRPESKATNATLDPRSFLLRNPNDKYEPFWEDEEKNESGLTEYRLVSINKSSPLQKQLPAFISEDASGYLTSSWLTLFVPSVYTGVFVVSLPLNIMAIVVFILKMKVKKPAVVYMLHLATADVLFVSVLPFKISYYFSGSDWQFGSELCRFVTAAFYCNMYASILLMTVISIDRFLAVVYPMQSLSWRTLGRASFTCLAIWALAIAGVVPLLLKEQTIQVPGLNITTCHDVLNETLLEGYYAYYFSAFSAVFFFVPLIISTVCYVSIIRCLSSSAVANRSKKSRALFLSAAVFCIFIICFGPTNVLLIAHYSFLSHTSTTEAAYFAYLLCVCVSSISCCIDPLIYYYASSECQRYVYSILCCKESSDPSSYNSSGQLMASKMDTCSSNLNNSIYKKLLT
Experimental: as §1, §2

## COc1ccccc1N1CCN(CCCCN2C(=O)c3ccc(CNC(=O)CCOCCNC(=O)c4ccc(CNC(=O)CCc5ccc6n5[B-](F)(F)[N+]5=C(c7ccc[nH]7)C=CC5=C6)cc4)cc3C2=O)CC1 [NAN-190-3-NB590]
CXCR3; tracer 0.1μM
  NanoBRET Fold Response: 0.97
CXCR3; tracer 1μM
  NanoBRET Fold Response: 1.01
F2R; tracer 0.1μM
  NanoBRET Fold Response: 0.97
F2R; tracer 1μM
  NanoBRET Fold Response: 1.11

## O=C(CCc1ccc2n1[B-](F)(F)[N+]1=C(c3ccc[nH]3)C=CC1=C2)NCc1ccc(C(=O)NCCOCCC(=O)N[C@@H]2CC[C@@]3(O)[C@H]4Cc5ccc(O)c6c5[C@@]3(CCN4CC3CC3)[C@H]2O6)cc1 [Naltrexone-3-NB590]
CXCR3; tracer 0.1μM
  NanoBRET Fold Response: 1.39
CXCR3; tracer 1μM
  NanoBRET Fold Response: 0.78
F2R; tracer 0.1μM
  NanoBRET Fold Response: 1.02
F2R; tracer 1μM
  NanoBRET Fold Response: 0.99

## Cc1cc2c(s1)Nc1ccccc1N=C2N1CCN(CCCNC(=O)CCOCCOCCOCCOCCNC(=O)CCc2ccc3n2[B-](F)(F)[N+]2=C(c4ccc[nH]4)C=CC2=C3)CC1 [Olanzapine-a-2-NB590]
CXCR3; tracer 0.1μM
  NanoBRET Fold Response: 1.05
CXCR3; tracer 1μM
  NanoBRET Fold Response: 0.89
F2R; tracer 0.1μM
  NanoBRET Fold Response: 1.01
F2R; tracer 1μM
  NanoBRET Fold Response: 0.90

## O=C(CCc1ccc2n1[B-](F)(F)[N+]1=C(c3ccc[nH]3)C=CC1=C2)NCc1ccc(C(=O)NCCOCCOCCNCC(O)COc2cccc3ccccc23)cc1 (stereo not drawn) [Propranolol-3-NB590]
CXCR3; 0.1μM
  NanoBRET Fold Response: 0.99
CXCR3; 1μM
  NanoBRET Fold Response: 0.90
F2R; 0.1μM
  NanoBRET Fold Response: 1.04
F2R; 1μM
  NanoBRET Fold Response: 1.06

## O=C(CCc1ccc2n1[B-](F)(F)[N+]1=C(c3ccc[nH]3)C=CC1=C2)NCCOCCOCCNC(=O)OCCOCCN1CCN(C2=Nc3ccccc3Sc3ccccc32)CC1 [Quetiapine-a-2-NB590]
CXCR3; tracer 0.1μM
  NanoBRET Fold Response: 1.00
CXCR3; tracer 1μM
  NanoBRET Fold Response: 1.14
F2R; tracer 0.1μM
  NanoBRET Fold Response: 1.09
F2R; tracer 1μM
  NanoBRET Fold Response: 1.41

## Cc1nc2n(c(=O)c1CCN1CCC(c3noc4cc(F)ccc34)CC1)CCCC2OC(=O)NCCOCCOCCOCCOCCNC(=O)CCc1ccc2n1[B-](F)(F)[N+]1=C(c3ccc[nH]3)C=CC1=C2 (stereo not drawn) [Risperidone-2-NB590]
CXCR3; tracer 0.1μM
  NanoBRET Fold Response: 1.06
CXCR3; tracer 1μM
  NanoBRET Fold Response: 0.91
F2R; tracer 0.1μM
  NanoBRET Fold Response: 0.97
F2R; tracer 1μM
  NanoBRET Fold Response: 0.78

## CC(C)N(CC[C@H](c1ccccc1)c1cc(CCNC(=O)CCOCCOCCOCCOCCNC(=O)CCc2ccc3n2[B-](F)(F)[N+]2=C(c4ccc[nH]4)C=CC2=C3)ccc1O)C(C)C [Tolterodine-2-NB590]
CXCR3; tracer 0.1μM
  NanoBRET Fold Response: 1.87
CXCR3; tracer 1μM
  NanoBRET Fold Response: 1.01
F2R; tracer 0.1μM
  NanoBRET Fold Response: 1.20
F2R; tracer 1μM
  NanoBRET Fold Response: 1.03

## CC(C)N(CC[C@H](c1ccccc1)c1cc(CCNC(=O)c2ccc(CNC(=O)CCc3ccc4n3[B-](F)(F)[N+]3=C(c5ccc[nH]5)C=CC3=C4)cc2)ccc1O)C(C)C [Tolterodine-BZ-NB590]
CXCR3; tracer 0.1μM
  NanoBRET Fold Response: 1.11
CXCR3; tracer 1μM
  NanoBRET Fold Response: 0.96
F2R; tracer 0.1μM
  NanoBRET Fold Response: 1.09
F2R; tracer 1μM
  NanoBRET Fold Response: 0.85

## CCCn1c(=O)c2[nH]c(-c3ccc(OCC(=O)NCCNC(=O)CCOCCNC(=O)c4ccc(CNC(=O)CCc5ccc6n5[B-](F)(F)[N+]5=C(c7ccc[nH]7)C=CC5=C6)cc4)cc3)nc2n(CCC)c1=O [XAC-3-NB590]
CXCR3; tracer 0.1μM
  NanoBRET Fold Response: 0.93
CXCR3; tracer 1μM
  NanoBRET Fold Response: 1.60
F2R; tracer 0.1μM
  NanoBRET Fold Response: 1.20
F2R; tracer 1μM
  NanoBRET Fold Response: 0.80
